Laboratory results: patent US20250236608A1, “EGFR INHIBITORS” (Blueprint Medicines Corporation, priority 2022, published 2025)
Counter-ions that a name gives are not always drawn.

Tests used:
EGFR (d746-750) = EGFR (d746-750) (Homo sapiens (Human), UniProt P00533, DEL746-750); test: Biochemical EGFR inhibition assay, EGFR (d746-750); conditions: Caliper mobility shift; 1.0 mM ATP or ATP Km; read-out: Enz EGFR_Exon19-del746-750 IC50
Procedure: (§1) Reactions proceeded until between 10% to 20% total peptides were phosphorylated at room temperature (25° C.) and were terminated with 35 mM 2,2′,2″,2″-(ethane-1,2-diyldinitrilo)tetraacetic acid (EDTA). Product was detected using the Caliper mobility shift detection method where the phosphorylated peptide (product) and substrate were electrophoretically separated and measured. Percent activity was plotted against log concentration of compound and points to generate an apparent IC50.

EGFR L858R = EGFR L858R (Homo sapiens (Human), UniProt P00533, L858R); test: Biochemical EGFR inhibition assay, EGFR L858R; conditions: Caliper mobility shift; 1.0 mM ATP or ATP Km; read-out: Enz EGFR_L858R IC50
Procedure: as §1

[1] = molecular target: pEGFR (Tyr1068) in PC-9 cells (Ex19Del) (Homo sapiens (Human), UniProt P00533, DEL746-750); test: PC-9 pEGFR AlphaLISA assay; format: cell-based; conditions: 4 hours incubation, p-EGFR (Tyr1068) AlphaLISA, read-out: Ext pEGFR_PC-9 Ex19Del IC50
Procedure: PC-9/A431 pEGFR AlphaLISA Assays
Inhibitory effects of compounds were evaluated in cellular assays that measure level of intracellular phosphorylation of EGFR in PC-9 (ECACC, #90071810, Milipore/Sigma) and A431 cell lines (ATCC, CRL-1555) using AlphaLISA sureFire ultra p-EGFR (Tyr1068) assay kit (PerkinElmer, ALSU-PEGFR-A50K). PC-9 cells were seeded at 3.125×10^5 cells/ml in 40 μL phenol-free DMEM supplemented with 10% FBS per well of a 384 well plate (Corning, 3764), while A431 were seeded at 3.125×10^5 cells/ml in 40 μL in phenol-free DMEM with 0.5% FBS. Cells were allowed to adhere overnight at 37° C./5% CO2. On the next day, compounds were transferred at 4-fold, 10-point serial dilution from compound source plate to cell plates using liquid handler Echo550 and were incubated at 37° C./5% CO2 for 4 hours. A431 cells were stimulated prior harvesting for 10 min with EGF at final concentration of 30 ng/ml in the incubator. Medium was removed from the plates and cells were lysed with 10 μL of 1× AlphaLISA lysis buffer (supplemented with 1× protease/phosphatase inhibitor cocktail) followed by shaking at 600 rpm for 30 minutes at room temperature. Lysates were transferred to Optiplate (Apricot designs) and 5 μl of 1× acceptor bead mix (prepared just before use) was added to each well followed by incubation at room temperature for 1.5-2 h in dark. Then 5 μL of freshly-made donor bead mix is added to each well under subdued lighting or green filters, was mixed well on the shaker and the plate was sealed and left for an overnight incubation at room temperature in dark. On the next day, the plate was read the Envision using standard AlphaLisa settings. Percent of pEGFR inhibition was plotted against log concentration of compounds to generate IC50 values.

Row | Molecule | IC50 (EGFR (d746-750)) [nM] | IC50 (EGFR L858R) [nM] | IC50 [1] [nM]
1 | COc1cc2ncnc(-c3cn(CC(F)F)nc3-c3ccccc3)c2cc1NC(=O)[C@]12COC[C@H]1C2 [Example 275, (1S,5S)—N-(4-(1-(2,2-difluoroethyl)-3-phenyl-1H-pyrazol-4-yl)-7-methoxyquinazolin-6-yl)-3-oxabicyclo[3.1.0]hexane-1-carboxamide] | 1.3 | 1.9 | 1.9
2 | COc1cc2ncnc(-c3cn(C)nc3-c3ccccc3)c2cc1NC(=O)c1nc(C)ccc1F [Example 330, 3-fluoro-N-(7-methoxy-4-(1-methyl-3-phenyl-1H-pyrazol-4-yl)quinazolin-6-yl)-6-methylpicolinamide] | 0.7 | 1 | 0.8
3 | COc1cc2ncnc(-c3cn(CC(F)F)nc3-c3ccccc3)c2cc1O[C@@H]1CCN(C)C[C@H]1F [Example 3, 4-(1-(2,2-difluoroethyl)-3-phenyl-1H-pyrazol-4-yl)-6-(((3R,4R)-3-fluoro-1-methylpiperidin-4-yl)oxy)-7-methoxyquinazoline] | 1.5 | 2.4 | 0.3
4 | Cn1cc(-c2ccc3c(-c4c[nH]nc4-c4cccc(Cl)c4)ncnc3c2)cn1 [Example 440, 4-(3-(3-chlorophenyl)-1H-pyrazol-4-yl)-7-(1-methyl-1H-pyrazol-4-yl)quinazoline] | – | 0.9 | 1.1
5 | Cc1c(-c2ncnc3cc(-c4cnn(C)c4)ccc23)c(-c2ccccc2)nn1C [Example 480, 4-(1,5-dimethyl-3-phenyl-1H-pyrazol-4-yl)-7-(1-methyl-1H-pyrazol-4-yl)quinazoline] | 4.4 | 5.6 | 69.1
6 | CN(C)C12CC(C(=O)Nc3nc4c(-c5cn(C)nc5-c5ccc(F)cc5)ncnc4cc3OC(F)F)(C1)C2 [Example 466, N-[7-(difluoromethoxy)-4-[3-(4-fluorophenyl)-1-methyl-1H-pyrazol-4-yl]pyrido[3,2-d]pyrimidin-6-yl]-3-(dimethylamino) bicyclo[1.1.1]pentane-1-carboxamide] | 7.3 | 39 | 31.2
7 | COc1cc2ncnc(-c3cn(C)nc3-c3ccccc3F)c2nc1NC(=O)C1CC1 [Example 356, N-(4-(3-(2-fluorophenyl)-1-methyl-1H-pyrazol-4-yl)-7-methoxypyrido[3,2-d]pyrimidin-6-yl)cyclopropanecarboxamide] | 1.1 | 1.9 | 1.2
8 | COc1cc2ncnc(-c3cn(CC(F)F)nc3-c3ccccc3)c2cc1NC(=O)c1cncs1 [Example 213, N-(4-(1-(2,2-difluoroethyl)-3-phenyl-1H-pyrazol-4-yl)-7-methoxyquinazolin-6-yl)thiazole-5-carboxamide] | 0.6 | 0.9 | 0.6
9 | COc1cc2ncnc(-c3cn(C)nc3-c3ccccc3)c2cc1-c1ccc2c(=O)[nH]ccc2c1 [Example 144, 6-(7-methoxy-4-(1-methyl-3-phenyl-1H-pyrazol-4-yl)quinazolin-6-yl)isoquinolin-1(2H)-one] | – | – | 8.3
10 | 7-ethoxy-6-(2-methyl-2H-indazol-4-yl)-4-(1-methyl-3-phenyl-1H-pyrazol-4-yl)pyrido[3,2-d]pyrimidine [Example 156] | – | 3.2 | 2.4
11 | COc1cc2ncnc(-c3cn(C)nc3-c3ccccc3)c2cc1NC(=O)[C@]12C[C@H]1CN(C)C2 [Example 337, (1R,5R)—N-(7-methoxy-4-(1-methyl-3-phenyl-1H-pyrazol-4-yl)quinazolin-6-yl)-3-methyl-3-azabicyclo[3.1.0]hexane-1-carboxamide] | – | – | 5.9
12 | COc1cc2ncnc(-c3cn(C)nc3-c3ccccc3)c2cc1NC(=O)[C@@]12C[C@@H]1CN(C)C2 [Example 336, (1S,5S)—N-(7-methoxy-4-(1-methyl-3-phenyl-1H-pyrazol-4-yl)quinazolin-6-yl)-3-methyl-3-azabicyclo[3.1.0]hexane-1-carboxamide] | – | – | 4
13 | COc1cc2ncnc(-c3cn(C)nc3-c3c(F)cccc3F)c2nc1NC(=O)[C@@]12C[C@@H]1CN(C)C2 (single isomer, unassigned) [Example 412, (1S,5S)—N-(4-(3-(2,6-difluorophenyl)-1-methyl-1H-pyrazol-4-yl)-7-methoxypyrido[3,2-d]pyrimidin-6-yl)-3-methyl-3-azabicyclo[3.1.0]hexane-1-carboxamide or (1R,5R)—N-(4-(3-(2,6-difluorophenyl)-1-methyl-1H-pyrazol-4-yl)-7-methoxypyrido[3,2-d]pyrimidin-6-yl)-3-methyl-3-azabicyclo[3.1.0]hexane-1-carboxamide] | – | 26 | 6.7
14 | CCC(=O)Nc1cc2c(-c3cn(C)nc3-c3ccccc3)ncnc2cc1-c1ccncn1 [Example 448, N-(4-(1-methyl-3-phenyl-1H-pyrazol-4-yl)-7-(pyrimidin-4-yl)quinazolin-6-yl)propionamide] | – | – | 6.5
15 | COc1cc2ncnc(-c3cn(C)nc3-c3c(F)cccc3F)c2nc1NC(=O)[C@]12C[C@H]1CN(C)C2 (single isomer, unassigned) [Example 413, (1R,5R)—N-(4-(3-(2,6-difluorophenyl)-1-methyl-1H-pyrazol-4-yl)-7-methoxypyrido[3,2-d]pyrimidin-6-yl)-3-methyl-3-azabicyclo[3.1.0]hexane-1-carboxamide or (1S,5S)—N-(4-(3-(2,6-difluorophenyl)-1-methyl-1H-pyrazol-4-yl)-7-methoxypyrido[3,2-d]pyrimidin-6-yl)-3-methyl-3-azabicyclo[3.1.0]hexane-1-carboxamide] | – | 10 | 23.2
16 | COc1cc2ncnc(-c3cn(C)nc3-c3ccccc3)c2cc1NC(=O)C1CCN1C (stereo not drawn) [Example 251, N-(7-methoxy-4-(1-methyl-3-phenyl-1H-pyrazol-4-yl)quinazolin-6-yl)-1-methylazetidine-2-carboxamide] | – | – | 3.5

Second part, the molecule after the results:

Row | IC50 (EGFR (d746-750)) [nM] | IC50 (EGFR L858R) [nM] | IC50 [1] [nM] | Molecule
17 | – | – | 5.1 | COc1cc2ncnc(-c3cn(C)nc3-c3ccccc3)c2cc1-c1ccnc(N2CCNCC2)c1 [Example 139, 7-methoxy-4-(1-methyl-3-phenyl-1H-pyrazol-4-yl)-6-(2-(piperazin-1-yl)pyridin-4-yl)quinazoline formate]
18 | – | – | 4.5 | COc1cc2ncnc(-c3cn(C)nc3-c3ccccc3)c2cc1NC(=O)C12C3C4C1C1C2C3C41NC(=O)OC(C)(C)C (stereo not drawn) [Example 343, tert-butyl (4-((7-methoxy-4-(1-methyl-3-phenyl-1H-pyrazol-4-yl)quinazolin-6-yl)carbamoyl)cuban-1-yl)carbamate]
19 | – | – | 5.9 | COc1cc2ncnc(-c3cn(C)nc3-c3ccccc3)c2cc1-c1ccc2n[nH]cc2c1C [Example 145, 7-methoxy-6-(4-methyl-2H-indazol-5-yl)-4-(1-methyl-3-phenyl-1H-pyrazol-4-yl)quinazoline]
20 | 1.3 | 5.4 | – | CN1CC[C@@H](Oc2cc3c(-c4cn(C)nc4-c4ccccc4)ncnc3cc2OC2CC2)[C@H](F)C1 [Example 476, 7-cyclopropoxy-6-(((3R,4R)-3-fluoro-1-methylpiperidin-4-yl)oxy)-4-(1-methyl-3-phenyl-1H-pyrazol-4-yl)quinazoline]
21 | – | 8.2 | – | COc1cc2ncnc(-c3cn(C)nc3-c3ccccc3)c2cc1-c1cc2c[nH]nc2cc1C [Example 146, 7-methoxy-6-(6-methyl-2H-indazol-5-yl)-4-(1-methyl-3-phenyl-1H-pyrazol-4-yl)quinazoline]
22 | – | – | 3.2 | COc1cc2ncnc(-c3cn(C)nc3-c3ccccc3)c2cc1NC(=O)[C@@H]1CCN1C (single isomer, unassigned) [Example 252, (S)—N-(7-methoxy-4-(1-methyl-3-phenyl-1H-pyrazol-4-yl)quinazolin-6-yl)-1-methylazetidine-2-carboxamide or (R)—N-(7-methoxy-4-(1-methyl-3-phenyl-1H-pyrazol-4-yl)quinazolin-6-yl)-1-methylazetidine-2-carboxamide]
23 | – | 13.7 | – | COc1cc2ncnc(-c3cn(C)nc3-c3ccccc3)c2cc1-c1cc2c[nH]nc2cc1C [Example 147, 7-methoxy-6-(6-methyl-2H-indazol-5-yl)-4-(1-methyl-3-phenyl-1H-pyrazol-4-yl)quinazoline]
